Results published in patent US12528816B2, “Substituted imidazo [1,2-b] pyridazines and [1, 2, 4] triazolo [ 4,3-b] pyridazines as camkii inhibitors” (Cardurion Pharmaceuticals, INC., priority 2020, dated 2026).

The molecules below were run against T1, human CaMKIIδ (Homo sapiens, UniProt Q13557) (assay: Evaluation of in vitro CaMKII inhibitory activity (binding assay, TR-FRET)). Details: human CaMKIIδ, TR-FRET binding assay; class symbols A/B/C; read-out: Act (CaMKII inhibitory activity, binding assay).
T1 construct: Full-length, glutathione-S-transferase(GST)-tagged, human CaMKIIδ was purchased from Carna Biosciences; purchased Carna Biosciences (CaMKIIδ); Wako Pure Chemical Industries (calmodulin) 02-111
Protocol: Evaluation of In Vitro CaMKII Inhibitory Activity (Binding Assay)
In vitro CaMKIIδ inhibitory activity was evaluated by a binding assay.
Full-length bovine calmodulin was purchased from Wako Pure Chemical Industries (Osaka, Japan). Terbium-labeled anti-GST anti body (Tb-anti-GST Ab) was purchased from Life Technologies (Carlsbad, CA, USA). Fluorescent probe ligand, 5,5-difluoro-7,9-dimethyl-3-(3-oxo-3-((3-((4-(3-(piperazin-1-yl)phenyl)pyrimidin-2-yl)amino)phenyl)amino) propyl)-5H-dipyrrolo[1,2-c:2′,1′-f]
Time-resolved fluorescence resonance energy transfer (TR-FRET) assay
The fluorescent probe ligand, 5,5-difluoro-7,9-dimethyl-3-(3-oxo-3-((3-((4-(3-(piperazin-1-yl)phenyl)pyrimidin-2-yl)amino)phenyl)amino) propyl)-5H-dipyrrolo[1,2-c:2′,1′-f] […] After shaded incubation of the protein-probe mixture on ice for 30 min, the premix was dispensed in the assay plate including test inhibitors with 4 fold dilution series of eight concentrations. After 1 hr incubation at room temperature, TR-FRET signals were measured in duplicate using an EnVision microplate reader (Perkin Elmer, Waltham, MA, USA).
The half maximal inhibitory concentration (IC50) of test compounds was calculated by fitting the data with the logistic equation using XLfit (IDBS, Guildford, UK).

Q: C[C@@H](Cn1cnnn1)Oc1cc(-c2ccn3ncc(-c4ccccc4C#N)c3n2)ccc1F [compound 28] was tested. Which IC50 did it give?
A: < 10 nM

Q: For C[C@@H](Cn1cnnn1)Oc1cc(-c2ccn3ncc(-c4ccc(F)cc4)c3n2)ccc1F [compound 51], which IC50 is on record?
A: < 10 nM

Q: For C[C@@H](Cn1cnnn1)Oc1cc(-c2ccc3ncc(-c4cccc(OCCN5C(=O)CCC5=O)c4C#N)n3n2)ccc1F [compound 211], which IC50 is on record?
A: < 10 nM

Q: How did the IC50 turn out when C[C@@H](Cn1cnnn1)Oc1cccc(-c2ccn3ncc(-c4cccc(C(=O)NCCn5cncn5)c4)c3n2)c1 [compound 96] was run?
A: < 10 nM

Q: With C[C@@H](Cn1cnnn1)Oc1cc(-c2ccc3ncn(-c4ccccc4C#N)c3n2)ccc1F [compound 151] as the molecule, how does the IC50 read?
A: < 10 nM

Q: For C[C@@H](Cn1cnnn1)Oc1cc(-c2ccc3ncc(-c4cccc(OCCN5CCCC5=O)c4C#N)n3n2)ccc1F [compound 207], which IC50 is on record?
A: < 10 nM

Q: For C[C@@H](Cn1cncn1)Oc1cccc(-c2ccn3ncc(-c4cccs4)c3n2)c1 [Example 61, 1-[(2S)-2-{3-[3-(thiophen-2-yl)pyrazolo[1,5-a]pyrimidin-5-yl]phenoxy}propyl]-1H-1,2,4-triazole], which IC50 is on record?
A: < 10 nM

Q: How did the IC50 turn out when C[C@@H](Cn1cnnn1)Oc1cccc(-c2ccn3ncc(-c4cccc(C(=O)Nc5cn[nH]c5)c4)c3n2)c1 [compound 65] was run?
A: < 10 nM

Q: Which IC50 does the source give for C[C@@H](Cn1cnnn1)Oc1cc(-c2ccc3ncn(-c4cccn(C)c4=O)c3n2)ccc1F [compound 176] here?
A: 10 to 100 nM

Q: Which IC50 does the source give for C[C@@H](Cn1cnnn1)Oc1cccc(-c2ccn3ncc(-c4cccc(C(=O)N5CCC(O)CC5)c4)c3n2)c1 [compound 89] here?
A: 10 to 100 nM

Q: With C[C@@H](Cn1cnnn1)Oc1cccc(-c2ccn3ncc(-c4cccc(C(=O)NCCCCN(C)C)c4)c3n2)c1 [compound 104] as the molecule, how does the IC50 read?
A: < 10 nM

Q: With COCCCOC(=O)c1c(-c2cnc3ccc(-c4ccc(F)c(O[C@@H](C)Cn5cnnn5)c4)nn23)cnn1CCCOC [compound 224] as the molecule, how does the IC50 read?
A: > 100 nM

Q: With C[C@@H](Cn1cnnn1)Oc1cc(-c2ccc3ncc(-c4cccc(OCCCC(=O)O)c4C#N)n3n2)ccc1F [compound 217] as the molecule, how does the IC50 read?
A: < 10 nM

Q: Which IC50 does the source give for C[C@@H](Cn1cnnn1)Oc1cccc(-c2ccn3ncc(-c4cccc(C(=O)Nc5ccncc5)c4)c3n2)c1 [compound 82] here?
A: < 10 nM

Q: With C[C@@H](Cn1cnnn1)Oc1cc(-c2ccc3ncn(-c4ccc[nH]c4=O)c3n2)ccc1F [compound 175] as the molecule, how does the IC50 read?
A: 10 to 100 nM

Q: With C[C@@H](Cn1cnnn1)Oc1cc(-c2ccn3ncc(-c4ccc(CN(C)C)cc4)c3n2)ccc1F [compound 41] as the molecule, how does the IC50 read?
A: < 10 nM

Q: C[C@@H](Cn1cnnn1)Oc1cc(-c2ccn3ncc(-c4ccc(N5CCNCC5)cc4)c3n2)ccc1F [compound 56] was tested. Which IC50 did it give?
A: < 10 nM

Q: C[C@@H](Cn1cnnn1)Oc1cc(-c2ccn3ncc(-c4cn(C)nc4C#N)c3n2)ccc1F [compound 164] was tested. Which IC50 did it give?
A: < 10 nM

Q: C[C@@H](Cn1cnnn1)Oc1cc(-c2ccn3ncc(-c4cccc(OC(F)(F)F)c4)c3n2)ccc1F [compound 46] was tested. Which IC50 did it give?
A: 10 to 100 nM

Q: Which IC50 does the source give for C[C@@H](Cn1cnnn1)Oc1cc(-c2ccn3ncc(-c4cncnc4)c3n2)ccc1F [compound 22] here?
A: < 10 nM

Q: How did the IC50 turn out when C[C@@H](Cn1cnnn1)Oc1cc(-c2ccn3ncc(-c4cncs4)c3n2)ccc1F [compound 27] was run?
A: < 10 nM

Q: For C[C@@H](Cn1cnnn1)Oc1cc(-c2ccc3ncc(-c4cccc(OCC5CCC(=O)N5)c4C#N)n3n2)ccc1F (stereo partly drawn) [compound 200], which IC50 is on record?
A: < 10 nM

Q: How did the IC50 turn out when CNC(=O)c1ccc(C#N)c(-c2cnc3ccc(-c4ccc(F)c(O[C@@H](C)Cn5cnnn5)c4)nn23)c1 [compound 168] was run?
A: < 10 nM

Q: For COc1ccc(-c2cnn3ccc(-c4ccc(F)c(O[C@@H](C)Cn5cnnn5)c4)nc23)cc1 [compound 30], which IC50 is on record?
A: < 10 nM

Q: How did the IC50 turn out when C[C@@H](Cn1cnnn1)Oc1cc(-c2ccc3ncc(-c4cccc(OCC(C)(C)C#N)c4C#N)n3n2)ccc1F [compound 226, 2-(2-cyano-2,2-dimethylethoxy)-6-[6-(4-fluoro-3-{[(2S)-1-(1H-tetrazol-1-yl)propan-2-yl]oxy}phenyl)imidazo[1,2-b]pyridazin-3-yl]benzonitrile] was run?
A: < 10 nM

Q: For C[C@@H](Cn1cnnn1)Oc1cc(-c2ccc3ncc(-c4cccc(OCC(N)=O)c4C#N)n3n2)ccc1F [compound 202], which IC50 is on record?
A: < 10 nM

Q: C[C@@H](Cn1cnnn1)Oc1cccc(-c2ccn3ncc(-c4cccc(C(=O)NCC5CC5)c4)c3n2)c1 [compound 63] was tested. Which IC50 did it give?
A: < 10 nM

Q: Which IC50 does the source give for C[C@@H](Cn1cnnn1)Oc1cc(-c2ccn3ncc(-c4cccc(C(F)(F)F)c4)c3n2)ccc1F [compound 130] here?
A: 10 to 100 nM

Q: With C[C@@H](Cn1cnnn1)Oc1cc(-c2ccc3ncc(-c4cccc[n+]4[O-])n3n2)ccc1F [compound 218] as the molecule, how does the IC50 read?
A: 10 to 100 nM

Q: Which IC50 does the source give for C[C@@H](Cn1cnnn1)Oc1cc(-c2ccn3ncc(-c4ccsc4)c3n2)ccc1F [compound 26] here?
A: < 10 nM

Q: Which IC50 does the source give for C[C@@H](Cn1cnnn1)Oc1cc(-c2ccc3ncc(-c4cccc(O)c4C#N)n3n2)ccc1F [compound 170] here?
A: < 10 nM

Same assay, conditions: in vitro CaMKII inhibitory activity (binding assay), human CaMKIIδ; read-out: Act

Q: How did the IC50 turn out when C[C@@H](Cn1cnnn1)Oc1cc(-c2ccn3ncc(-c4ncccc4C#N)c3n2)ccc1F [compound 295] was run?
A: < 10 nM

Q: Which IC50 does the source give for COc1ccnc(-c2cnc3ccc(-c4ccc(F)c(O[C@@H](C)Cn5ncnn5)c4)nn23)c1C#N [compound 444] here?
A: < 10 nM

Q: For COc1cc(-c2cnc3ccc(-c4cccc(O[C@@H](C)Cn5cnnn5)n4)nn23)c(C#N)cn1 [compound 463], which IC50 is on record?
A: < 10 nM

Q: How did the IC50 turn out when C[C@@H](Cn1cnnn1)Oc1ccnc(-c2ccc3ncn(-c4cc(F)ccc4C#N)c3n2)n1 [compound 346] was run?
A: 10 to 100 nM

Q: With COc1cccc(-c2cnc3ccc(-c4cccc(O[C@@H](C)Cn5cnnn5)n4)nn23)c1C#N [compound 404, 2-methoxy-6-[6-(6-{[(2S)-1-(1H-tetrazol-1-yl)propan-2-yl]oxy}pyridin-2-yl)imidazo[1,2-b]pyridazin-3-yl]benzonitrile] as the molecule, how does the IC50 read?
A: < 10 nM

Q: C[C@@H](Cn1cnnn1)Oc1cccc(-c2ccc3ncc(-c4cc(F)cn(CC(F)F)c4=O)n3n2)c1 [compound 337] was tested. Which IC50 did it give?
A: < 10 nM

Q: For C[C@@H](Cn1cnnn1)Oc1cccc(-c2ccc3ncc(-c4cc(F)cn(CC(F)(F)F)c4=O)n3n2)c1 [compound 339], which IC50 is on record?
A: < 10 nM

Q: How did the IC50 turn out when C[C@@H](Cn1cnnn1)Oc1cccc(-c2ccc3ncc(-c4cc[nH]c(=O)c4C#N)n3n2)c1 [compound 272, 2-oxo-4-[6-(3-{[(2S)-1-(1H-tetrazol-1-yl)propan-2-yl]oxy}phenyl)imidazo[1,2-b]pyridazin-3-yl]-1,2-dihydropyridine-3-carbonitrile] was run?
A: < 10 nM

Q: For Cc1cnc(C#N)c(-c2cnc3ccc(-c4cccc(O[C@@H](C)Cn5cnnn5)c4)nn23)n1 [compound 277], which IC50 is on record?
A: < 10 nM

Q: How did the IC50 turn out when C[C@@H](Cn1cnnn1)Oc1cccc(-c2ccc3ncn(-c4cccc(Cl)c4C#N)c3n2)n1 [compound 453] was run?
A: 10 to 100 nM

Q: For CNC(=O)c1sccc1-c1cnc2ccc(-c3ccc(F)c(O[C@@H](C)Cn4cnnn4)c3)nn12 [compound 245], which IC50 is on record?
A: 10 to 100 nM

Q: How did the IC50 turn out when C[C@@H](Cn1cnnn1)Oc1cncc(-c2ccc3ncc(-c4ccccc4C#N)n3n2)c1 [Example 244, 2-[6-(5-{[(2S)-1-(1H-tetrazol-1-yl)propan-2-yl]oxy}pyridin-3-yl)imidazo[1,2-b]pyridazin-3-yl]benzonitrile] was run?
A: < 10 nM

Q: With C[C@@H](Cn1cnnn1)Oc1cccc(-c2ccc3ncc(-c4cc(F)cc(OC(F)F)c4C#N)n3n2)n1 [Example 409, 2-(difluoromethoxy)-4-fluoro-6-[6-(6-{[(2S)-1-(1H-tetrazol-1-yl)propan-2-yl]oxy}pyridin-2-yl)imidazo[1,2-b]pyridazin-3-yl]benzonitrile] as the molecule, how does the IC50 read?
A: < 10 nM

Q: C[C@@H](Cn1cnnn1)Oc1cncc(-c2ccc3ncc(-c4cc(F)ccc4C#N)n3n2)n1 [Example 326, 4-fluoro-2-[6-(6-{[(2S)-1-(1H-tetrazol-1-yl)propan-2-yl]oxy}pyrazin-2-yl)imidazo[1,2-b]pyridazin-3-yl]benzonitrile] was tested. Which IC50 did it give?
A: < 10 nM

Q: Which IC50 does the source give for C[C@@H](Cn1cnnn1)Oc1cccc(-c2ccc3ncc(-c4cccc(C(F)F)c4C#N)n3n2)c1 [Example 413, 2-(difluoromethyl)-6-[6-(3-{[(2S)-1-(1H-tetrazol-1-yl)propan-2-yl]oxy}phenyl)imidazo[1,2-b]pyridazin-3-yl]benzonitrile] here?
A: < 10 nM

Q: COc1nccc(-c2cnc3ccc(-c4ccc(F)c(O[C@@H](C)Cn5cnnn5)c4)nn23)c1C#N [Example 399, 4-[6-(4-fluoro-3-{[(2S)-1-(1H-tetrazol-1-yl)propan-2-yl]oxy}phenyl)imidazo[1,2-b]pyridazin-3-yl]-2-methoxypyridine-3-carbonitrile] was tested. Which IC50 did it give?
A: < 10 nM

Q: For C[C@@H](Cn1cnnn1)Oc1cccc(-c2ccc3ncc(-c4cccc(C(C)(F)F)c4C#N)n3n2)c1 [Example 427, 2-(1,1-difluoroethyl)-6-[6-(3-{[(2S)-1-(1H-tetrazol-1-yl)propan-2-yl]oxy}phenyl)imidazo[1,2-b]pyridazin-3-yl]benzonitrile], which IC50 is on record?
A: < 10 nM

Q: How did the IC50 turn out when COc1nccc(-c2cnc3ccc(-c4cccc(O[C@@H](C)Cn5cnnn5)n4)nn23)c1C#N [compound 403] was run?
A: < 10 nM

Q: C[C@@H](Cn1cnnn1)Oc1cccc(-c2ccc3ncc(-c4nccc(C5CC5)c4C#N)n3n2)c1 [compound 274] was tested. Which IC50 did it give?
A: < 10 nM

Q: C[C@@H](Cn1cnnn1)Oc1cccc(-c2ccc3ncc(-c4ncnc(N(C)C)c4C#N)n3n2)c1 [compound 372] was tested. Which IC50 did it give?
A: 10 to 100 nM
